The data set is described as follows: Stability of the peptide in solution (storage, handling, assays). The settings on record: qualitative, relative to Met31-containing pediocin PA-1 3c.

Turning to `CC[C@H](C)[C@H](NC(=O)[C@H](CS)NC(=O)[C@@H](NC(=O)[C@@H](NC(=O)[C@H](C)NC(=O)[C@H](CCCCN)NC(=O)CNC(=O)[C@H](Cc1c[nH]c2ccccc12)NC(=O)[C@H](CC(=O)O)NC(=O)[C@@H](NC(=O)[C@H](CO)NC(=O)[C@H](CS)NC(=O)[C@H](CO)NC(=O)[C@H](Cc1c[nH]cn1)NC(=O)[C@H](CCCCN)NC(=O)CNC(=O)[C@H](CS)NC(=O)[C@@H](NC(=O)[C@@H](NC(=O)CNC(=O)[C@H](CC(N)=O)NC(=O)CNC(=O)[C@H](Cc1ccc(O)cc1)NC(=O)[C@H](Cc1ccc(O)cc1)NC(=O)[C@@H](N)CCCCN)C(C)C)[C@@H](C)O)C(C)C)[C@@H](C)O)[C@@H](C)O)C(=O)N[C@H](C(=O)N[C@@H](CC(N)=O)C(=O)N[C@@H](CC(N)=O)C(=O)NCC(=O)N[C@@H](C)C(=O)N[C@@H](CC(C)C)C(=O)N[C@@H](C)C(=O)N[C@@H](Cc1c[nH]c2ccccc12)C(=O)N[C@@H](C)C(=O)N[C@H](C(=O)NCC(=O)NCC(=O)N[C@@H](Cc1c[nH]cn1)C(=O)N[C@@H](CCC(N)=O)C(=O)NCC(=O)N[C@@H](CC(N)=O)C(=O)N[C@@H](Cc1c[nH]cn1)C(=O)N[C@@H](CCCCN)C(=O)N[C@@H](CS)C(=O)O)[C@@H](C)O)[C@@H](C)CC` [compound 4], the “molecular stability / stability in solution during storage, handling and assays” value is listed as “significantly greater”.

The values are drawn from publication PMC5998028, “Synthesis, antimicrobial activity and conformational analysis of the class IIa bacteriocin pediocin PA-1 and analogs thereof” (Scientific Reports, 2018).
